In patent US11447505B1, “Pyrrolo[2,3-b]pyridine compounds and their use in the treatment of cancer” (priority 2017, dated 2022):
Where two headings read alike, the source gives them in different places.

How the values were obtained:
ROCK1 [1] = target: T1, ROCK1 (Homo sapiens (Human), UniProt Q13464); assay: biochemical
ROCK2 = ROCK2 (Homo sapiens (Human), UniProt O75116); assay: ROCK2 kinase assay (IMAP fluorescence polarization); format: biochemical; details: 1 μM ATP; read-out: ROCK2 Average Ki
MRCKβ = MRCKβ (Homo sapiens (Human), UniProt Q9Y5S2); assay: MRCKβ kinase assay (IMAP fluorescence polarization); format: biochemical; details: 1 μM ATP; read-out: MRCK-B Average Ki
Text: (§1) MRCKα, MRCKβ, ROCK1 and ROCK2 Kinase Assays

MRCKα = MRCKα (Homo sapiens (Human), UniProt Q5VT25); assay: MRCKα kinase assay (IMAP fluorescence polarization); format: biochemical; details: 1 μM ATP; read-out: MRCK-a Average Ki
Text: as §1

ROCK1 [2] = target: T1, ROCK1; details: read-out: ROCK1 Average Ki; 1 μM ATP

MRCKα, sequence (Q5VT25 whole entry): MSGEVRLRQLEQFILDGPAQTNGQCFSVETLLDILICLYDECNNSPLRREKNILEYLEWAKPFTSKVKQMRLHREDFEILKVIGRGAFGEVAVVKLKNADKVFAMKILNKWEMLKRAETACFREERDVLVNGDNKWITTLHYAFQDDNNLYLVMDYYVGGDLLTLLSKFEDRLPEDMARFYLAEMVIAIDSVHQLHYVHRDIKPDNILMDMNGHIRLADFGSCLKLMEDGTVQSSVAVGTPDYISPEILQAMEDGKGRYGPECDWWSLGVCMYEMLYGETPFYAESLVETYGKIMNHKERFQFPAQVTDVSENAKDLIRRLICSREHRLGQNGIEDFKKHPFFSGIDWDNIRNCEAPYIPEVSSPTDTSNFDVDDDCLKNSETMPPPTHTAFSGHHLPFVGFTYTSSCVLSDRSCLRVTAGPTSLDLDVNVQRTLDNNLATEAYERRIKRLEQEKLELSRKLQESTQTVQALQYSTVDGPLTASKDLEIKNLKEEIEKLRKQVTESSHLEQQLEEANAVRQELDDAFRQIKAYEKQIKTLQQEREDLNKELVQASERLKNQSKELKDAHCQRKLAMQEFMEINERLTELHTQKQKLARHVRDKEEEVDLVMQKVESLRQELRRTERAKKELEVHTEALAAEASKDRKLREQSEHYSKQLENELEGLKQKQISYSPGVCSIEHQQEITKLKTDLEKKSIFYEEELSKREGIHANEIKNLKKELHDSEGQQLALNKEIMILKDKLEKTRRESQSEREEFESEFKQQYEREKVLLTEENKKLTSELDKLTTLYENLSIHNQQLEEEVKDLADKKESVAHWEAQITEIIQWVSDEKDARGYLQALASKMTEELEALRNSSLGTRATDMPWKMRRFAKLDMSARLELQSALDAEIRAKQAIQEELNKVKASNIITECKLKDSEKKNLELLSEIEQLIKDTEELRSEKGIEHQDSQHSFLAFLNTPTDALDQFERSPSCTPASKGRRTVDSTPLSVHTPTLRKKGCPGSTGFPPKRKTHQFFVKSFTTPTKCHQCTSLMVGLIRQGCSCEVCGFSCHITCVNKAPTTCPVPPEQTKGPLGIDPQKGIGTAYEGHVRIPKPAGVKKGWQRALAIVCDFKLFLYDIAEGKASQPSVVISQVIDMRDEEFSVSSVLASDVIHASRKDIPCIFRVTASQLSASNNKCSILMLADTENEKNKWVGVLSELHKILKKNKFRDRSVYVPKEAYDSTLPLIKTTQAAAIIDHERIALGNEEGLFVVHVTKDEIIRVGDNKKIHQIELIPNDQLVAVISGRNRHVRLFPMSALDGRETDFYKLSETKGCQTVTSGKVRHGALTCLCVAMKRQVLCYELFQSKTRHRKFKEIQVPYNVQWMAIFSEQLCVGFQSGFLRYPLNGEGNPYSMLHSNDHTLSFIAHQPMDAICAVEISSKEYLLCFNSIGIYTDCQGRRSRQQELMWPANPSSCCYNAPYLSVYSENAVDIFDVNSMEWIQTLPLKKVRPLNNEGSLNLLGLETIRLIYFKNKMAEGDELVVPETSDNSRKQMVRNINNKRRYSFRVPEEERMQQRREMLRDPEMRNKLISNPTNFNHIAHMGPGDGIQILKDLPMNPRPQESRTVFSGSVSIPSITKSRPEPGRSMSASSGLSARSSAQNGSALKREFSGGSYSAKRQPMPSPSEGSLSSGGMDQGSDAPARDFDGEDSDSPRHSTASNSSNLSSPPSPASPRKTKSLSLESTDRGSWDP
T1 sequence (Q13464 2-1354 limits assumed): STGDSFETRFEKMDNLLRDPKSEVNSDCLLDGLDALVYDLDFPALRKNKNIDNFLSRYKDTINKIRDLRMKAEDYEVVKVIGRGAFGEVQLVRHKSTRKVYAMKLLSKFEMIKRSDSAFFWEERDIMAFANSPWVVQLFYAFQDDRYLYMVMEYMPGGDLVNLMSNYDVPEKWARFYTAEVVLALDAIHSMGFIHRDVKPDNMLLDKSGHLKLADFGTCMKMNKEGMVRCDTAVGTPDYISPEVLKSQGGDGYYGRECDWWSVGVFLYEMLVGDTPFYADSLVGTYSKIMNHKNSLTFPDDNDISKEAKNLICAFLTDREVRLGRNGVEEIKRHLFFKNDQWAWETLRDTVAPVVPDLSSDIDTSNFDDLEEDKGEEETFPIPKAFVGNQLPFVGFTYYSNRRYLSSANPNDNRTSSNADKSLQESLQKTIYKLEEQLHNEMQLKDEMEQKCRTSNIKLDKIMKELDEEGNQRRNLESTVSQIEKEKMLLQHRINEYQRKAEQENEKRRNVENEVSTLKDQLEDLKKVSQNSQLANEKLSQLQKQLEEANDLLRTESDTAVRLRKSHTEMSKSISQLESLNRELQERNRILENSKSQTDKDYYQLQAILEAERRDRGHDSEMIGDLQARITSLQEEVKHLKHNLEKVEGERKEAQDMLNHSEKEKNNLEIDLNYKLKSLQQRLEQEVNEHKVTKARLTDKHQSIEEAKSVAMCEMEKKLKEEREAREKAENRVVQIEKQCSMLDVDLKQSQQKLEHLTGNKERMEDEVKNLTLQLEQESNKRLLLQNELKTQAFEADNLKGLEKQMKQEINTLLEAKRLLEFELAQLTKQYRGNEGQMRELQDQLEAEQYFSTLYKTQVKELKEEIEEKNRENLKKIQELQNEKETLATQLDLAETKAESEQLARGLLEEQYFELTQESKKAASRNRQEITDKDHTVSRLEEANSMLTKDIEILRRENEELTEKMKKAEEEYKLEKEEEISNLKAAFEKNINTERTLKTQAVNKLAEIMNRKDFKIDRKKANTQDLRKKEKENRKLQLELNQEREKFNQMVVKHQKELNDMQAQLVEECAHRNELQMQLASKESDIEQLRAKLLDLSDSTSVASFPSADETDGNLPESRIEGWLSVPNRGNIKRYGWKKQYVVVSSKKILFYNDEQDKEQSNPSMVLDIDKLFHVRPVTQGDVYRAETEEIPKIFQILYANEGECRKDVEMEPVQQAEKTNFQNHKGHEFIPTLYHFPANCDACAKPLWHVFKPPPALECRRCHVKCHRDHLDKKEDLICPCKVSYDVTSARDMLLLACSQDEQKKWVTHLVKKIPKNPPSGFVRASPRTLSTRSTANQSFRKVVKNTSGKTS
ROCK2, sequence (O75116 whole entry): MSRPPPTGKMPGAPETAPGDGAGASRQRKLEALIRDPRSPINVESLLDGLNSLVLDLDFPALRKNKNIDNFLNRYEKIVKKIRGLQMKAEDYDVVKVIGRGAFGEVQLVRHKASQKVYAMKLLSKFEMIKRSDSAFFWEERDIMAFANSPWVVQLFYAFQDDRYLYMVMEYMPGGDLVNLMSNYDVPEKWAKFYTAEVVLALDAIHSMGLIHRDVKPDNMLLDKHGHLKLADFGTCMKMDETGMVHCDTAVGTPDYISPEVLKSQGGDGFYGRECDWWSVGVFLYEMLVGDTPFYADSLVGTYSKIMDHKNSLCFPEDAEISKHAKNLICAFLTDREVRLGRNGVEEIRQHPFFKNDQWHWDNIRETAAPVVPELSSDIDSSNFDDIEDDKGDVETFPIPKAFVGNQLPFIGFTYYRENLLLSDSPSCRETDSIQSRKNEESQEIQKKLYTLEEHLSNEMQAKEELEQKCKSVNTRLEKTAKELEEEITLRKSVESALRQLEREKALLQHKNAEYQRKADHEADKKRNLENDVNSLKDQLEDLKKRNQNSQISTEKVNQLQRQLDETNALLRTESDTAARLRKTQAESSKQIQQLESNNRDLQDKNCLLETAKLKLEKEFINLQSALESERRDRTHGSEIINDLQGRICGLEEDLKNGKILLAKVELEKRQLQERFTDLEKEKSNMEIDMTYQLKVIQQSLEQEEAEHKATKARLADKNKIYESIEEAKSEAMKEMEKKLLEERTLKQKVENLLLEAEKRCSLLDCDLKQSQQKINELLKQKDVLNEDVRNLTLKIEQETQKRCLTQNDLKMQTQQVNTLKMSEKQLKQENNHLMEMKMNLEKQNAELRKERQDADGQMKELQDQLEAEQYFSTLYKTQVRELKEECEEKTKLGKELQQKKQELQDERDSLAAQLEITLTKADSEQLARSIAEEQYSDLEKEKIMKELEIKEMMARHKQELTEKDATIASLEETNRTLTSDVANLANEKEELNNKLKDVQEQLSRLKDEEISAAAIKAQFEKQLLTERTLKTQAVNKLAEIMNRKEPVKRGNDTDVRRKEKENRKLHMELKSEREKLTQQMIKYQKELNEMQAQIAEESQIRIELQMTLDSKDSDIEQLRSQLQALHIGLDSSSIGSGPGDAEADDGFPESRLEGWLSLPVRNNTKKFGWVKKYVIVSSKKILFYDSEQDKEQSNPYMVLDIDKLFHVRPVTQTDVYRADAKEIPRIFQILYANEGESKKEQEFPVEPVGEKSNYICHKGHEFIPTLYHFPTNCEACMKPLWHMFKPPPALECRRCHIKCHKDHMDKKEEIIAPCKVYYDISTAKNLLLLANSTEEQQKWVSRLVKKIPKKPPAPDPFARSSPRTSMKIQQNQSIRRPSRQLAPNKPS

Ki (ROCK1 [1]) [nM] | Ki (ROCK2) [nM] | Ki (MRCKβ) [nM] | Ki (MRCKα) [nM] | Ki (ROCK1 [2]) [nM] | SMILES
3.5 | 1.9 | 1.11 |  |  | Nc1cncc(-c2c[nH]c3nccc(N4CCCCC4)c23)c1 [Example E6, 5-[4-(1-piperidyl)-1H-pyrrolo[2,3-b]pyridin-3-yl]pyridin-3-amine]
16.7 | 12.7 | 5.08 |  |  | N#Cc1c[nH]c2nccc(N3CCC[C@H]3CO)c12 [Example E38, 4-[(2S)-2-(hydroxymethyl)pyrrolidin-1-yl]-1H-pyrrolo[2,3-b]pyridine-3-carbonitrile]
103 | 86.8 | 29.7 |  |  | N#Cc1c[nH]c2nccc(N3CCC[C@@H]3CO)c12 [Example E39, 4-[(2R)-2-(hydroxymethyl)pyrrolidin-1-yl]-1H-pyrrolo[2,3-b]pyridine-3-carbonitrile]
2150 | 1070 | 247 |  |  | N#Cc1c[nH]c2nccc(N3CCC[C@H]3COc3ccccc3)c12 [Example E40, 4-[(2S)-2-(phenoxymethyl)pyrrolidin-1-yl]-1H-pyrrolo[2,3-b]pyridine-3-carbonitrile]
34.4 |  | 0.202 |  |  | c1cc(-c2c[nH]c3nccc(N4CCC[C@H](NC5CC5)C4)c23)ncn1 [Example E41, (3S)—N-cyclopropyl-1-(3-pyrimidin-4-yl-1H-pyrrolo[2,3-b]pyridin-4-yl)piperidin-3-amine]
1300 | 276 | 346 |  |  | Brc1cnc2[nH]cc(-c3cc[nH]n3)c2c1N1CCCCC1 [Example E70, 5-bromo-4-(1-piperidyl)-3-(1H-pyrazol-3-yl)-1H-pyrrolo[2,3-b]pyridine]
1110 | 196 | 1.85 | 0.481 |  | CN[C@H]1CCCN(c2ccnc3[nH]cc(-c4cc[nH]n4)c23)C1 [Example E83, (3S)-N-methyl-1-[3-(1H-pyrazol-3-yl)-1H-pyrrolo[2,3-b]pyridin-4-yl]piperidin-3-amine]
5000 | 1510 | 4.97 |  |  | OC1CCN([C@H]2CCCN(c3ccnc4[nH]cc(-c5cncnc5)c34)C2)CC1 [Example E92, 1-[(3S)-1-(3-pyrimidin-5-yl-1H-pyrrolo[2,3-b]pyridin-4-yl)-3-piperidyl]piperidin-4-ol]
505 | 277 | 71.3 |  |  | O[C@@H]1CCCN(c2ccnc3[nH]cc(-c4cncnc4)c23)C1 [Example E100, (3R)-1-(3-pyrimidin-5-yl-1H-pyrrolo[2,3-b]pyridin-4-yl)piperidin-3-ol]
≥ 100000 |  | 2.48 |  |  | c1cc(N2CCC[C@]3(CCCCN3)C2)c2c(-c3ncsn3)c[nH]c2n1 [Example E115, 3-[4-[(6R)-1,8-diazaspiro[5.5]undecan-8-yl]-1H-pyrrolo[2,3-b]pyridin-3-yl]-1,2,4-thiadiazole]
 | 299 | 1.47 | 2.89 | 50300 | c1cc(-c2c[nH]c3nccc(N4CCC[C@]5(CCCCN5)C4)c23)ncn1 [Example E118, (6R)-8-(3-pyrimidin-4-yl-1H-pyrrolo[2,3-b]pyridin-4-yl)-1,8-diazaspiro[5.5]undecane]
 | 100000 | 1.04 | 1.34 | 100000 | c1cnc(-c2c[nH]c3nccc(N4CCCC5(CCCCN5)C4)c23)nc1 (stereo not shown) [Example E157, 8-(3-pyrimidin-2-yl-1H-pyrrolo[2,3-b]pyridin-4-yl)-1,8-diazaspiro[5.5]undecane]
 | 547 | 1.5 | 0.257 | 1860 | c1cnnc(-c2c[nH]c3nccc(N4CCCC5(CCCCN5)C4)c23)c1 (stereo not shown) [Example E175, 8-(3-pyridazin-3-yl-1H-pyrrolo[2,3-b]pyridin-4-yl)-1,8-diazaspiro[5.5]undecane]
3420 | 1580 | 124 |  |  | CN1CC[C@@H]2CCN(c3ccnc4[nH]cc(-c5cncnc5)c34)C[C@@H]21 [Example E180, 4-[(3aR,7aR)-1-methyl-3,3a,4,5,7,7a-hexahydro-2H-pyrrolo[2,3-c]pyridin-6-yl]-3-pyrimidin-5-yl-1H-pyrrolo[2,3-b]pyridine]
 | 15.4 | 9.45 | 9.1 | 25 | c1cc(-c2c[nH]c3nccc(N4CCCCC4)c23)[nH]n1 [Example E181, 4-(1-piperidyl)-3-(1H-pyrazol-5-yl)-1H-pyrrolo[2,3-b]pyridine]
 | 90 | 18.8 | 9 | 132 | c1cncc(-c2c[nH]c3nccc(N4CCCCC4)c23)c1 [Example E182, 4-(1-piperidyl)-3-(3-pyridyl)-1H-pyrrolo[2,3-b]pyridine]
 | 12.3 | 6.03 | 12.6 | 31 | c1cc(N2CCCCC2)c2c(-c3cn[nH]c3)c[nH]c2n1 [Example E183, 4-(1-piperidyl)-3-(1H-pyrazol-4-yl)-1H-pyrrolo[2,3-b]pyridine]
 | 28.8 | 1.52 | 0.598 | 93.6 | Cn1cc(-c2c[nH]c3nccc(N4CCCC5(CCCCN5)C4)c23)cn1 (stereo not shown) [Example E188, 8-[3-(1-methylpyrazol-4-yl)-1H-pyrrolo[2,3-b]pyridin-4-yl]-1,8-diazaspiro[5.5]undecane]
 | 167 | 1.31 | 0.131 | 643 | c1cnc(-c2c[nH]c3nccc(N4CCCC5(CCCCN5)C4)c23)cn1 (stereo not shown) [Example E189, 8-(3-pyrazin-2-yl-1H-pyrrolo[2,3-b]pyridin-4-yl)-1,8-diazaspiro[5.5]undecane]
 | 15.2 | 0.969 | 0.217 | 22.3 | c1ncc(-c2c[nH]c3nccc(N4CCC5(CCCNC5)CC4)c23)cn1 [Example E193, 9-(3-pyrimidin-5-yl-1H-pyrrolo[2,3-b]pyridin-4-yl)-2,9-diazaspiro[5.5]undecane]
 | 54 | 2.73 | 0.652 | 83.6 | c1ncc(-c2c[nH]c3nccc(N4CCCC5(CCCNC5)C4)c23)cn1 (stereo not shown) [Example E194, 2-(3-pyrimidin-5-yl-1H-pyrrolo[2,3-b]pyridin-4-yl)-2,8-diazaspiro[5.5]undecane]
 | 174 | 3.27 | 4.69 | 332 | c1ncc(-c2c[nH]c3nccc(N4CCCC5(CCCN5)C4)c23)cn1 (stereo not shown) [Example E195, 9-(3-pyrimidin-5-yl-1H-pyrrolo[2,3-b]pyridin-4-yl)-1,9-diazaspiro[4.5]decane]
 | 177 | 134000 | 5.1 | 213 | c1ncc(-c2c[nH]c3nccc(N4CCCC5(CCCCN5)C4)c23)cn1 (stereo not shown) [Example E196, 8-(3-pyrimidin-5-yl-1H-pyrrolo[2,3-b]pyridin-4-yl)-1,8-diazaspiro[5.5]undecane]
19.8 | 7 | 8.82 |  |  | N#Cc1c[nH]c2nccc(N3CC[C@@H](N)C3)c12 [Example E197, 4-[(3R)-3-aminopyrrolidin-1-yl]-1H-pyrrolo[2,3-b]pyridine-3-carbonitrile]
196 | 145 | 3.13 |  |  | CN1CC[C@H]2CN(c3ccnc4[nH]cc(-c5cncnc5)c34)CC[C@H]21 [Example E200, 4-[(3aS,7aR)-1-methyl-3,3a,4,6,7,7a-hexahydro-2H-pyrrolo[3,2-c]pyridin-5-yl]-3-pyrimidin-5-yl-1H-pyrrolo[2,3-b]pyridine]
1050 | 703 | 147 |  |  | CN1CCCN(C(=O)[C@@H]2CCCN2c2ccnc3[nH]cc(C#N)c23)CC1 [Example E201, 4-[(2S)-2-(4-methyl-1,4-diazepane-1-carbonyl)pyrrolidin-1-yl]-1H-pyrrolo[2,3-b]pyridine-3-carbonitrile]
42 | 32.1 | 1.07 |  |  | c1ncc(-c2c[nH]c3nccc(OC[C@@H]4CCCNC4)c23)cn1 [Example E214, 4-[[(3R)-3-piperidyl]methoxy]-3-pyrimidin-5-yl-1H-pyrrolo[2,3-b]pyridine]
 | 55.8 | 1.78 | 1.13 | 66.8 | c1ncc(-c2c[nH]c3nccc(OC4CCCNCC4)c23)cn1 (stereo not shown) [Example E216, 4-(azepan-4-yloxy)-3-pyrimidin-5-yl-1H-pyrrolo[2,3-b]pyridine]
 | 52.6 | 3.71 | 2.52 | 57.6 | c1ncc(-c2c[nH]c3nccc(OC[C@@H]4CCNC4)c23)cn1 [Example E219, 3-pyrimidin-5-yl-4-[[(3R)-pyrrolidin-3-yl]methoxy]-1H-pyrrolo[2,3-b]pyridine]

SMILES | Ki (ROCK1 [1]) [nM] | Ki (ROCK2) [nM] | Ki (MRCKβ) [nM] | Ki (MRCKα) [nM] | Ki (ROCK1 [2]) [nM]
CN(C)C1CCCN(c2ccnc3[nH]cc(-c4cncnc4)c23)C1 (stereo not shown) [Example E60, N,N-dimethyl-1-(3-pyrimidin-5-yl-1H-pyrrolo[2,3-b]pyridin-4-yl)piperidin-3-amine] | 404 | 201 | 13.6 |  | 
N#Cc1c[nH]c2nccc(N3CCC4(CCCCN4)C3)c12 (stereo not shown) [Example E184, 4-(2,6-diazaspiro[4.5]decan-2-yl)-1H-pyrrolo[2,3-b]pyridine-3-carbonitrile] | 21.9 |  |  |  | 
N#Cc1c[nH]c2nccc(N3CCC[C@]4(CCCCN4)C3)c12 [Example E186, 4-[(6R)-1,8-diazaspiro[5.5]undecan-8-yl]-1H-pyrrolo[2,3-b]pyridine-3-carbonitrile] | 347 |  |  |  | 
c1ncc(-c2c[nH]c3nccc(O[C@H]4CCCNC4)c23)cn1 [Example E222, 4-[[(3S)-3-piperidyl]oxy]-3-pyrimidin-5-yl-1H-pyrrolo[2,3-b]pyridine] |  | 50700 | 50.6 | 28.4 | 50900
